molecular target: T1, NanoBiT® HiBiT non-luminescent peptide and LgBiT non-luminescent polypeptide (HiBiT/LgBiT bioluminescent complex) (Oplophorus gracilirostris, UniProt Q9GV45, A31E/A60N/A81I/C191F/D135N/E192K/F58L/F95D/G184S/G42A/G62A/G78A/G94A/G98A/H120P/I103V/I117V/I134L/K70R/L176M/L195S/L54V/L73R/L99Q/M102E/N171T/N193K/P142E/Q151K/Q38E/Q45L/T186S/V71I/Y165I); test: biochemical
T1 construct: fused on or other part: N-terminal Met-Val on LgBiT in place of the signal peptide (residues 1-27); The chain is split between residues 184 and 185 into LgBiT and the 11-residue HiBiT peptide (residues 185-195); C-terminal A196 is absent
T1 sequence (Q9GV45 other isoform, or with tags, fused parts or gaps with the stated changes): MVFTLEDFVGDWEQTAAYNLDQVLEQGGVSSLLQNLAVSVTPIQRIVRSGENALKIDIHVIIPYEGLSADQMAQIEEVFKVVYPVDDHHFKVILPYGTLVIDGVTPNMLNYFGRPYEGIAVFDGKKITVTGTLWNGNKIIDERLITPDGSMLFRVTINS

`CCCCc1ccc(NS(=O)(=O)c2ccc(C)cc2)c(C(=O)Nc2cc3ccccc3s2)c1` [JRW-1146, N-(benzo[b]thiophen-2-yl)-5-butyl-2-((4-methylphenyl)sulfonamido)benzamide] was tested. Which IC50 did it give?
The IC50 was 630 nM.

With `COc1ccc(S(=O)(=O)Nc2ccccc2C(=O)Nc2ccc(C)cc2)cc1` [JRW-1285, 2-((4-methoxyphenyl)sulfonamido)-N-(p-tolyl)benzamide] as the compound, how does the IC50 read?
The IC50 was 360 nM.

`N#Cc1c(NC(=O)c2ccccc2NS(=O)(=O)c2ccccc2)sc2c1CCC2` [HL-0010, N-(3-cyano-5,6-dihydro-4H-cyclopenta[b]thiophen-2-yl)-2-(phenylsulfonamido)benzamide] was tested. Which IC50 did it give?
The IC50 was 22 nM.

Which IC50 does the source give for `CCCCc1cccc(NC(=O)c2ccccc2NS(=O)(=O)c2ccc(C)cc2)c1` [HL-0070, N-(3-butylphenyl)-2-((4-methylphenyl)sulfonamido)benzamide] here?
Its IC50 is 130 nM.

Which IC50 does the source give for `Cc1ccc(S(=O)(=O)Nc2ccccc2C(=O)Nc2cccc(C)c2)cc1` [HL-0044, 2-((4-methylphenyl)sulfonamido)-N-(m-tolyl)benzamide] here?
The IC50 was 88 nM.

For `Cc1ccc(NC(=O)c2ccccc2NS(=O)(=O)c2cccc(Br)c2)cc1` [JRW-1267, 2-((3-bromophenyl)sulfonamido)-N-(p-tolyl)benzamide], which IC50 is on record?
Its IC50 is 36 nM.

For `COc1ccc(NS(=O)(=O)c2ccc(C)cc2)c(C(=O)Nc2cc3ccccc3s2)c1` [JRW-1167, N-(benzo[b]thiophen-2-yl)-5-methoxy-2-((4-methylphenyl)sulfonamido)benzamide], which IC50 is on record?
Its IC50 is 20 nM.

How did the IC50 turn out when `COc1cccc(S(=O)(=O)Nc2ccccc2C(=O)Nc2ccc(C)cc2)c1` [JRW-1205, 2-((3-methoxyphenyl)sulfonamido)-N-(p-tolyl)benzamide] was run?
The IC50 was 29 nM.

Which IC50 does the source give for `Cc1cccc(S(=O)(=O)Nc2ccccc2C(=O)Nc2cc3ccccc3s2)c1` [HL-0041, N-(benzo[b]thiophen-2-yl)-2-((3-methylphenyl)sulfonamido)benzamide] here?
The IC50 was 13 nM.

With `COC(=O)CCc1ccc(S(=O)(=O)Nc2ccccc2C(=O)Nc2cc3ccccc3s2)cc1` [HL-0040, methyl 3-(4-(N-(2-(benzo[b]thiophen-2-ylcarbamoyl)phenyl)sulfamoyl)phenyl)propanoate] as the compound, how does the IC50 read?
The IC50 was 430 nM.

With `Cc1ccc(S(=O)(=O)Nc2ccccc2C(=O)Nc2sc3c(c2C#N)CCCC3)cc1` [JRW-1004, N-(3-cyano-4,5,6,7-tetrahydrobenzo[b]thiophen-2-yl)-2-((4-methylphenyl)sulfonamido)benzamide] as the compound, how does the IC50 read?
The IC50 was 30 nM.

Which IC50 does the source give for `CCOC(=O)c1cccc(NC(=O)c2ccccc2NS(=O)(=O)c2ccc(C)cc2)c1` [HL-0026, ethyl 3-(2-((4-methylphenyl)sulfonamido)benzamido)benzoate] here?
The IC50 was 240 nM.

How did the IC50 turn out when `CC(=O)Nc1cccc(S(=O)(=O)Nc2ccccc2C(=O)Nc2ccc(C)cc2)c1` [JRW-1253, 2-((3-acetamidophenyl)sulfonamido)-N-(p-tolyl)benzamide] was run?
The IC50 was 2300 nM.

How did the IC50 turn out when `COc1cccc(NC(=O)c2ccccc2NS(=O)(=O)c2ccc(C)cc2)c1` [JRW-1299, N-(3-methoxyphenyl)-2-((4-methylphenyl)sulfonamido)benzamide] was run?
The IC50 was 90 nM.

For `COC(=O)c1cccc(S(=O)(=O)Nc2ccccc2C(=O)Nc2ccc(C)cc2)c1` [JRW-1250, methyl 3-(N-(2-(p-tolylcarbamoyl)phenyl)sulfamoyl)benzoate], which IC50 is on record?
Its IC50 is 540 nM.

With `Cc1ccc(S(=O)(=O)Nc2ccccc2C(=O)Nc2ccccc2C#N)cc1` [JRW-1008, N-(2-cyanophenyl)-2-((4-methylphenyl)sulfonamido)benzamide] as the compound, how does the IC50 read?
Its IC50 is 240 nM.

How did the IC50 turn out when `Cc1ccc(S(=O)(=O)Nc2ccccc2C(=O)Nc2ccccc2)cc1` [JRW-1011, 2-((4-methylphenyl)sulfonamido)-N-phenylbenzamide] was run?
The IC50 was 94 nM.

With `COc1ccc(NC(=O)c2ccccc2NS(=O)(=O)c2ccc(C)cc2)cc1` [JRW-1300, N-(4-methoxyphenyl)-2-((4-methylphenyl)sulfonamido)benzamide] as the compound, how does the IC50 read?
Its IC50 is 43 nM.

How did the IC50 turn out when `COc1ccccc1NC(=O)c1ccccc1NS(=O)(=O)c1ccc(C)cc1` [JRW-1292, N-(2-methoxyphenyl)-2-((4-methylphenyl)sulfonamido)benzamide] was run?
The IC50 was 590 nM.

For `Cc1ccc(NC(=O)c2ccccc2NS(=O)(=O)c2cccc(N)c2)cc1` [JRW-1255, 2-((3-aminophenyl)sulfonamido)-N-(p-tolyl)benzamide], which IC50 is on record?
Its IC50 is 60 nM.

How did the IC50 turn out when `Cc1ccc(S(=O)(=O)Nc2ccccc2C(=O)Nc2ccc(CCCCBr)cc2)cc1` [JRW-1152, N-(4-(4-bromobutyl)phenyl)-2-((4-methylphenyl)sulfonamido)benzamide] was run?
The IC50 was 120 nM.

With `O=C(Nc1cc2ccccc2s1)c1ccccc1NS(=O)(=O)c1ccc(CCCO)cc1` [HL-0062, N-(benzo[b]thiophen-2-yl)-2-((4-(3-hydroxypropyl)phenyl)sulfonamido)benzamide] as the compound, how does the IC50 read?
Its IC50 is 1200 nM.

With `Cc1ccc(S(=O)(=O)Nc2ccccc2C(=O)Nc2sccc2C#N)cc1` [JRW-1006, N-(3-cyanothiophen-2-yl)-2-((4-methylphenyl)sulfonamido)benzamide] as the compound, how does the IC50 read?
The IC50 was 1000 nM.
